What was measured:
Conditions in all cases: 25 nM protease, 10 µM peptide
trypsin-2 = trypsin-2 (Homo sapiens, UniProt P07478); assay: Cleavage of peptides by purified trypsin-2, MALDI-TOF/TOF
Source text: (§1) Trypsin-like proteases included in the experiments are trypsin-1, -2 and -3, tryptase (Enzo LifeSciences), thrombin (Sigma-Aldrich) and cathepsin G (Sigma-Aldrich). Trypsin-1, -2 and -3 were produced as described by Koistinen et al. and Wu et al.. Two elastase-like enzymes, neutrophil elastase (Enzo LifeSciences, Farmingdale, NY, USA) and pancreatic elastase I (Sigma-Aldrich) were included as well. All enzymes were from human origin except for pancreatic elastase from porcine pancreas.
(§2) Reaction mixtures with purified enzymes were compiled in an identical way. Each mixture contained an equimolar concentration of protease (25 nM based on) and 10 µM peptide of interest and was incubated for 2, 5, 10 and 30 min at 37 °C. Substance P was added as the standard peptide except for the reaction mixtures with substance P or bradykinin as the peptide of interest, where angiotensin II (Bachem) was added.
(§3) The TFA mixtures were thawed on ice and desalted using C18 zip-tips (Merck Millipore®, Burlington, MA, USA) with a capacity of 5 µg protein. Retained peptide fragments were eluted directly on the MALDI target plate. Next, 0.5 µL of a 2.5 mg/mL α-cyano-4-hydroxycinnamic acid (Sigma-Aldrich) matrix solution (in 70% acetonitrile, 0.1% TFA) was spotted on top of the sample. A 6-Peptide mixture Kit (AB Sciex, Framingham, MA, USA) containing bradykinin (2–9), angiotensin I, glu1-fibrinopeptide, ACTH (1–17), ACTH (18–39) and ACTH (7–38) was diluted with matrix and spotted on the plate as well.
(§4) MS and MS/MS data for peptide fragment identification were obtained with a MALDI-TOF/TOF instrument (4800 MALDI TOF/TOF™, Applied Biosystems, Waltham, MA, USA) and instrument parameters were set using 4000 Series Explorer™ software. MS spectra were recorded in positive reflector mode in a mass range from 500 to 4000 Da and laser intensity of 4500–4800 Hz. The spectra were calibrated using the calibration mixture mentioned above to a mass tolerance of 0.1 Da. MS/MS spectra were recorded with high-energy collision-induced dissociation and the laser intensity was increased by 10%. Precursor mass m/z 1570.65 (Glu1-Fibrinopeptide from the calibration mixture) was used to calibrate the MS/MS spectra to a mass tolerance of 0.1 Da.
(§5) MS and MS/MS spectra were processed using DataExplorer™ software and the obtained output files were uploaded in the MS-PEP data analyzer (https://bioit.shinyapps.io/PARs/ accessed 10/08/2020) for peptide fragment identification. Identified fragments were confirmed using the MS/MS spectra and mMass 5.5.0 by Martin Strohalm. The relative intensities of the fragments were calculated as the ratio of the intensity of the peak of interest to the intensity of the peak of the standard peptide.

tryptase = tryptase (Homo sapiens, UniProt Q15661); assay: Cleavage of peptides by purified tryptase, MALDI-TOF/TOF
Chain of tryptase (Q15661 31-275): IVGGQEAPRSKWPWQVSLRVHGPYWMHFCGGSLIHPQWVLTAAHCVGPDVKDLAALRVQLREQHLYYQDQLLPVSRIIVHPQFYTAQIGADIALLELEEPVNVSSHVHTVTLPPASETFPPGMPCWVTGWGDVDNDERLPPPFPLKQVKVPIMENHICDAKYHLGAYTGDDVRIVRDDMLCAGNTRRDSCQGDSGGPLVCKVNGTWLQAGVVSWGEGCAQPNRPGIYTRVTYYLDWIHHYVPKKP
Source text: as §1, §2, §3, §4, §5

cathepsin G = target: T1, cathepsin G (Homo sapiens, UniProt P08311); assay: Cleavage of peptides by purified cathepsin G, MALDI-TOF/TOF
T1 sequence (P08311 21-255): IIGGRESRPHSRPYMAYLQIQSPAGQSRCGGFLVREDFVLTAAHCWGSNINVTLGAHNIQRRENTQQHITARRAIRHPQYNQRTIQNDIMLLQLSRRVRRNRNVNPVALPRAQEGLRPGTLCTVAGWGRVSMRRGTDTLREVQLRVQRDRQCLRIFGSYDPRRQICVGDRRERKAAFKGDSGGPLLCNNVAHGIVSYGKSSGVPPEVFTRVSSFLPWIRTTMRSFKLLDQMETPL
Source text: as §1
(§6) Reaction mixtures with purified enzymes were compiled in an identical way. […] Substance P was added as the standard peptide except for the reaction mixtures with substance P or bradykinin as the peptide of interest, where angiotensin II (Bachem) was added.
as §3
as §4, with “10%.” for “10%. Precursor mass m/z 1570.65 (Glu1-Fibrinopeptide from the calibration mixture) was used to calibrate the MS/MS spectra to a mass tolerance of 0.1 Da.”
(§7) Identified fragments were confirmed using the MS/MS spectra and mMass 5.5.0 by Martin Strohalm. The relative intensities of the fragments were calculated as the ratio of the intensity of the peak of interest to the intensity of the peak of the standard peptide.

neutrophil elastase = target: T2, neutrophil elastase (Homo sapiens, UniProt P08246); assay: Cleavage of peptides by purified neutrophil elastase, MALDI-TOF/TOF
T2 sequence (P08246 30-267): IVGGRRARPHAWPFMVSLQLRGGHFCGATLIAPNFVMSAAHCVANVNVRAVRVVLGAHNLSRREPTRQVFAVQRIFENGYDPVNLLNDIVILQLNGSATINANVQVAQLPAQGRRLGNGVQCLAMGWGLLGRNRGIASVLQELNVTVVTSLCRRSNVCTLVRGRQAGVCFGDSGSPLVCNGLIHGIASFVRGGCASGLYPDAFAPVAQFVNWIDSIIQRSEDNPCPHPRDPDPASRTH
Source text: as §1, §6, §3
as §4, with “10%.” for “10%. Precursor mass m/z 1570.65 (Glu1-Fibrinopeptide from the calibration mixture) was used to calibrate the MS/MS spectra to a mass tolerance of 0.1 Da.”
as §7

pancreatic elastase I = pancreatic elastase I (Sus scrofa, UniProt P00772); assay: Cleavage of peptides by purified pancreatic elastase, MALDI-TOF/TOF
Chain of pancreatic elastase I (P00772 27-266): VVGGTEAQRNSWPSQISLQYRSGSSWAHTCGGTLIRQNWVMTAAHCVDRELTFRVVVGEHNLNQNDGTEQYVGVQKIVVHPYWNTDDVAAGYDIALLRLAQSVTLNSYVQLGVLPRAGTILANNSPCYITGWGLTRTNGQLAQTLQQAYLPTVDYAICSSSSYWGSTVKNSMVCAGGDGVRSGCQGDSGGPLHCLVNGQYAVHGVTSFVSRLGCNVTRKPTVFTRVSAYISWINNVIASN
Source text: as §1, §6, §3
as §4, with “10%.” for “10%. Precursor mass m/z 1570.65 (Glu1-Fibrinopeptide from the calibration mixture) was used to calibrate the MS/MS spectra to a mass tolerance of 0.1 Da.”
as §7

[1] = 37 °C, 2, 5, 10 and 30 min, stopped with 2% TFA
[2] = 37 °C, time points 2, 5, 10, 30 min

Chain of trypsin-2 (P07478 24-247): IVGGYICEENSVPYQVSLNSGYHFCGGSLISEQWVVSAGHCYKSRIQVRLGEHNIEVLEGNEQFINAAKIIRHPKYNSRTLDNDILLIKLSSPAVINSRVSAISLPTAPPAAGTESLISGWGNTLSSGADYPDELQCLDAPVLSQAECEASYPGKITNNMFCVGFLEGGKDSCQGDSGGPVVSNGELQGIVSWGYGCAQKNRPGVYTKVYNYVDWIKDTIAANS

SMILES: CC[C@H](C)[C@H](NC(=O)[C@H](C)NC(=O)[C@H](CC(N)=O)NC(=O)[C@H](CCCCN)NC(=O)[C@H](Cc1ccccc1)NC(=O)[C@H](CC(C)C)NC(=O)[C@@H](NC(=O)[C@@H](NC(=O)[C@H](CC(C)C)NC(=O)[C@@H]1CCCN1C(=O)[C@@H](NC(=O)[C@H](CCC(N)=O)NC(=O)[C@H](CO)NC(=O)[C@H](CCCCN)NC(=O)[C@H](CCC(=O)O)NC(=O)[C@H](CO)NC(=O)[C@@H](NC(=O)[C@H](CCSC)NC(=O)[C@H](Cc1ccccc1)NC(=O)CNC(=O)CNC(=O)[C@@H](N)Cc1ccc(O)cc1)[C@@H](C)O)[C@@H](C)O)C(C)C)[C@@H](C)O)C(=O)N[C@H](C(=O)N[C@@H](CCCCN)C(=O)N[C@@H](CC(N)=O)C(=O)N[C@@H](C)C(=O)N[C@@H](Cc1ccc(O)cc1)C(=O)N[C@@H](CCCCN)C(=O)N[C@@H](CCCCN)C(=O)NCC(=O)N[C@@H](CCC(=O)O)C(=O)O)[C@@H](C)CC [β-endorphin]
- Efficiency of the first cleavage in the peptide, Trypsin-2 (trypsin-2; [1]): +++ (ultrafast processing within 2 min)
- Incubation time at which the first cleavage or decrease of the full-length peptide was observed, trypsin-2 (trypsin-2; [2]): 2 min
- Efficiency of the first cleavage in the peptide, Tryptase (tryptase; [1]): +++ (ultrafast processing within 2 min)
- Incubation time at which the first cleavage or decrease of the full-length peptide was observed, tryptase (tryptase; [2]): 2 min
- Efficiency of the first cleavage in the peptide, Cathepsin G (cathepsin G; [1]): +++ (ultrafast processing within 2 min)
- Incubation time at which the first cleavage or decrease of the full-length peptide was observed, cathepsin G (cathepsin G; [2]): 2 min
- Efficiency of the first cleavage in the peptide, Neutrophil Elastase (neutrophil elastase; [1]): +++ (ultrafast processing within 2 min)
- Incubation time at which the first cleavage or decrease of the full-length peptide was observed, neutrophil elastase (neutrophil elastase; [2]): 2 min
- Efficiency of the first cleavage in the peptide, Pancreatic Elastase (pancreatic elastase I; [1]): +++ (ultrafast processing within 2 min)
- Incubation time at which the first cleavage or decrease of the full-length peptide was observed, pancreatic elastase (pancreatic elastase I; [2]): 2 min

Source: publication PMC8509398, “Proteolytic Cleavage of Bioactive Peptides and Protease-Activated Receptors in Acute and Post-Colitis” (International Journal of Molecular Sciences, 2021)
